In EP3818828A1 (priority 2019, dated 2021):
Values after ≈ are worked out from the molar mass of the structure shown. Like-named read-outs stand apart in the source and are kept apart here.

How the values were obtained:
Type in all cases: cell-based
Fusarium graminearum [1] = test: microbe, parasite or virus in culture
Magnaporthe grisea = test: microbe, parasite or virus in culture
Phytophthora infestans [2] = test: microbe, parasite or virus in culture
Phytophthora infestans [3] = test: microbe, parasite or virus in culture; details: for Average Diameter of the Colony: 1 mg/mL
Phytophthora infestans [4] = details: Phytophthora infestas; 1 mg/mL
Exserohilum turcicum [5] = test: Toxicity determination (EC50) on mycelial growth, growth rate method
Procedure: (§1) The inhibition of samples for testing on the mycelial growth of plant pathogenic fungi for testing is determined with a growth rate method. 3-(3',4'-methylenedioxy phenyl)-N-n-propyl acrylamide, 3-(3',4'-methylenedioxy phenyl)-piperidine acrylate and five control agents are dissolved with dimethyl sulfoxide (DMSO), then formulated at 5-7 concentrations of different gradients for test following the trial test results, with the same concentration of DMSO as the control solvent, each treatment in triplicate. Fungal cakes with a diameter of 4 mm are taken from the edge of the colony, inoculated into the center of a PDA plate containing different agents of different concentrations and the DMSO control, with one piece of fungal cake inoculated in each plate (with a diameter of […]), and incubated in a constant temperature incubator at a temperature of 22±1.5°C. 7 days later (10-20 days may be needed for some pathogenic fungi), the diameter of the colony is measured with a cross over method according to the mycelial growth profile of the control pathogenic fungi, then the inhibition rate of mycelial growth is calculated.
(§2) 3-(3',4'-methylenedioxy phenyl)-piperidine acrylate, the control agents 96.5% of chlorothalonil technical and 97.0% of procymidone technical. Agents for testing and the control agents chlorothalonil and procymidone are treated at 5-8 concentrations of different gradients on the basis of preliminary tests to ensure that the inhibition rates for treatments at all the concentrations are between 10% and 90%.
(§3) For specific determination methods, with reference to Embodiment 1. The concentration of active ingredients in the culture medium is used as the testing concentration to calculate the toxic regression equation (Y=bx+a) and the median inhibition concentration EC50, 95% confidence limit, and relative toxicity. Relative toxicity (compared to chlorothalonil) = EC50 of chlorothalonil / EC50 of 3-(3',4'-methylenedioxy phenyl)-piperidine acrylate, and relative toxicity (compared to procymidone) = EC50 of procymidone / EC50 of 3-(3',4'-methylenedioxy phenyl)-piperidine acrylate.

Colletotrichum capsici [6] = test: as above
Procedure: as §1, §2, §3

Botrytis cinerea [7] = test: as above
Procedure: as §1, §2, §3

Sclerotinia sclerotiorum [8] = test: as above
Procedure: as §1, §2, §3

Valsa mali [9] = test: as above
Procedure: as §1, §2, §3

Pyricularia grisea = test: microbe, parasite or virus in culture; details: for Average Diameter of the Colony: 1 mg/mL; for inhibition at 1000 µg/mL: read-out: Inhibition Rate
F. graminearum [10] = test: microbe, parasite or virus in culture; details: for Average Diameter of the Colony: F. graminearum, 1 mg/mL; for inhibition at 1000 µg/mL: Fusarium graminearum, read-out: Inhibition Rate
Fusarium graminearum [11] = test: microbe, parasite or virus in culture; remark: listed apart in the source
Exserohilum turcicum [12] = test: Ex vivo mycelial growth inhibition, growth rate method; details: 1 mg/mL
Text: (§4) 3-(3',4'-methylenedioxy phenyl)-N-n-propyl acrylamide (at a purity of 99%), 3-(3',4'-methylenedioxy phenyl)-piperidine acrylate (at a purity of 99%), the control agents, 96.5% of chlorothalonil technical (non-systemic broad-spectrum fungicide), 97.2% of carbendazim technical (systemic broad-spectrum fungicide), 97.0% of procymidone technical (systemic fungicide), 96.0% of dimethomorphtechnical ((E,Z)-4-[3-(4-chlorphenyl)3-(3,4-dimethoxy phenyl)acryloyl]morpholine, systemic fungicide), 97.0% of azoxystrobin technical (systemic broad-spectrum fungicide).
as §1
(§5) The computational formula is as below: the inhibition rate of mycelial growth (%) = [(the diameter of the control colony - the diameter of the treated colony)/the diameter of the control colony] × 100.
(§6) The inhibition results of each agent at a concentration of 1 mg/mL on the mycelial growth of plant pathogenic fungi are shown in Tables 1 and 2.

Mycosphaerlla melonis = test: as above; details: 1 mg/mL
Text: as §4, §1, §5, §6

Colletotrichum capsici [13] = test: as above; details: 1 mg/mL
Text: as §4, §1, §5, §6

[14] = tested on: Botryosphaeriana berengeriana; test: as above; details: 1 mg/mL
Text: as §4, §1, §5, §6

F. oxysporum f. sp. lini = test: as above; details: 1 mg/mL; for inhibition at 1000 µg/mL: Fusarium oxysporum
Text: as §4, §1, §5, §6

Coniella diplodiella = test: as above; details: 1 mg/mL
Text: as §4, §1, §5, §6

[15] = tested on: F. oxysporum f. sp. vasinfectum; test: as above; details: 1 mg/mL; for inhibition at 1000 µg/mL: Fusarium oxysporum
Text: as §4, §1, §5, §6

Botrytis cinerea [16] = test: as above; details: 1 mg/mL
Text: as §4, §1, §5, §6

Pythium aphanidermatum = test: as above; details: 1 mg/mL
Text: as §4, §1, §5, §6

Sclerotinia sclerotiorum [17] = test: as above; details: 1 mg/mL
Text: as §4, §1, §5, §6

[18] = tested on: Botryosphaeria berengeriana; test: as above; details: 1 mg/mL
Text: as §4, §1, §5, §6

C. gossypii = test: as above; details: 1 mg/mL; for Average Diameter of the Colony: C. gossypii; for inhibition at 1000 µg/mL: Colletotrichum gossypii, C. cossypii, read-out: Inhibition Rate
Text: as §4, §1, §5, §6

[19] = tested on: Gaeumannomyces graminis var. graminis and G. graminis var. tritici; test: as above; details: 1 mg/mL
Text: as §4, §1, §5, §6

Phytophthora capsici = test: as above; details: Phytophthora capsici; 1 mg/mL
Text: as §4, §1, §5, §6

F. verticillioide = test: as above; details: 1 mg/mL
Text: as §4, §1, §5, §6

Rhizoctonia solani = test: as above; details: Rhizoctonia solani; 1 mg/mL
Text: as §4, §1, §5, §6

Valsa mali [20] = test: as above; details: 1 mg/mL
Text: as §4, §1, §5, §6

Thanatephorus cucumeris = test: as above; details: 1 mg/mL
Text: as §4, §1, §5, §6

F. graminearum [21] = test: microbe, parasite or virus in culture
[22] = EC50 of chlorothalonil / EC50 of agent
[23] = EC50 of procymidone / EC50 of agent
[24] = median inhibition concentration

## N#Cc1c(Cl)c(Cl)c(Cl)c(C#N)c1Cl [Chlorothalonil, chlorothalonil]
Fusarium graminearum [1]; [22]
  Relative Toxicity (Compared to Chlorothalonil): 1.00
Fusarium graminearum [1]; [23]
  Relative Toxicity (Compared to Procymidone): 0.31
Fusarium graminearum [1]; [24]
  EC50: 469 µg/mL (≈ 1760 µM)
Magnaporthe grisea; [22]
  Relative Toxicity (Compared to Chlorothalonil): 1.00
Magnaporthe grisea; [23]
  Relative Toxicity (Compared to Procymidone): 0.71
Magnaporthe grisea; Pyricularia oryzae, median inhibition concentration
  EC50: 436 µg/mL (≈ 1640 µM)
Phytophthora infestans [2]; [22]
  Relative Toxicity (Compared to Chlorothalonil): 1.00
Phytophthora infestans [2]; [23]
  Relative Toxicity (Compared to Procymidone): 6.78
Phytophthora infestans [2]; [24]
  EC50: 115 µg/mL (≈ 431 µM)
Phytophthora infestans [3]
  Average Diameter of the Colony: 0.20 cm
Phytophthora infestans [4]
  Average Diameter of the Colony: 1.78 cm
Exserohilum turcicum [5]; [22]
  Relative Toxicity (Compared to Chlorothalonil): 1.00
Exserohilum turcicum [5]; [23]
  Relative Toxicity (Compared to Procymidone): 0.26
Exserohilum turcicum [5]; median inhibition concentration, read-out: EC50
  EC50: 411 µg/mL (≈ 1550 µM)
Colletotrichum capsici [6]; Colletotrichum truncatum, median inhibition concentration, read-out: EC50
  EC50: 404 µg/mL (≈ 1520 µM)
Colletotrichum capsici [6]; [22]
  Relative Toxicity (Compared to Chlorothalonil): 1.00
Colletotrichum capsici [6]; [23]
  Relative Toxicity (Compared to Procymidone): 1.28
Botrytis cinerea [7]; [22]
  Relative Toxicity (Compared to Chlorothalonil): 1.00
Botrytis cinerea [7]; [23]
  Relative Toxicity (Compared to Procymidone): 0.45
Botrytis cinerea [7]; [24]
  EC50: 177 µg/mL (≈ 665 µM)
Sclerotinia sclerotiorum [8]; [22]
  Relative Toxicity (Compared to Chlorothalonil): 1.00
Sclerotinia sclerotiorum [8]; [23]
  Relative Toxicity (Compared to Procymidone): 1.13
Sclerotinia sclerotiorum [8]; [24]
  EC50: 62.7 µg/mL (≈ 236 µM)
Valsa mali [9]; Cytospora mali, median inhibition concentration, read-out: EC50
  EC50: 418 µg/mL (≈ 1570 µM)
Valsa mali [9]; [22]
  Relative Toxicity (Compared to Chlorothalonil): 1.00
Valsa mali [9]; [23]
  Relative Toxicity (Compared to Procymidone): 1.02
Pyricularia grisea
  Average Diameter of the Colony: 1.63 cm
  inhibition at 1000 µg/mL: 81.9%
F. graminearum [10]
  Average Diameter of the Colony: 1.92 cm
  inhibition at 1000 µg/mL: 77.7%
Fusarium graminearum [11]; 1 mg/mL
  Average Diameter of the Colony: 0.71 cm
Fusarium graminearum [11]; read-out: Inhibition Rate
  inhibition at 1000 µg/mL: 86.7%
Exserohilum turcicum [12]
  Average Diameter of the Colony: 1.41 cm
  inhibition at 1000 µg/mL: 77.3%
Mycosphaerlla melonis
  Average Diameter of the Colony: 2.16 cm
  inhibition at 1000 µg/mL: 74.9%
Colletotrichum capsici [13]
  Average Diameter of the Colony: 1.95 cm
Colletotrichum capsici [13]; Colletotrichum truncatum
  inhibition at 1000 µg/mL: 71.2%
[14]
  Average Diameter of the Colony: 0.94 cm
  inhibition at 1000 µg/mL: 83.5%
F. oxysporum f. sp. lini
  Average Diameter of the Colony: 3.73 cm
  inhibition at 1000 µg/mL: 58.6%
Coniella diplodiella
  Average Diameter of the Colony: 0.00 cm
  inhibition at 1000 µg/mL: 100%
[15]
  Average Diameter of the Colony: 2.45 cm
  inhibition at 1000 µg/mL: 66.2%
Botrytis cinerea [16]
  Average Diameter of the Colony: 1.16 cm
  inhibition at 1000 µg/mL: 84.5%
Pythium aphanidermatum
  Average Diameter of the Colony: 1.14 cm
  inhibition at 1000 µg/mL: 83%
Sclerotinia sclerotiorum [17]
  Average Diameter of the Colony: 0.00 cm
  inhibition at 1000 µg/mL: 100%
[18]
  Average Diameter of the Colony: 2.11 cm
  inhibition at 1000 µg/mL: 69%
C. gossypii
  Average Diameter of the Colony: 1.45 cm
  inhibition at 1000 µg/mL: 73.2%
[19]
  Average Diameter of the Colony: 2.51 cm
  inhibition at 1000 µg/mL: 64.9%
Phytophthora capsici
  Average Diameter of the Colony: 0.91 cm
  inhibition at 1000 µg/mL: 82.8%
F. verticillioide
  Average Diameter of the Colony: 0.87 cm
  inhibition at 1000 µg/mL: 74.3%
Rhizoctonia solani
  Average Diameter of the Colony: 0.00 cm
  inhibition at 1000 µg/mL: 100%
Valsa mali [20]
  Average Diameter of the Colony: 1.65 cm
Valsa mali [20]; Cytospora mali
  inhibition at 1000 µg/mL: 79.1%
Thanatephorus cucumeris
  Average Diameter of the Colony: 1.05 cm
  inhibition at 1000 µg/mL: 87.8%
F. graminearum [21]; [22]
  Relative Toxicity (Compared to Chlorothalonil): 1.00
F. graminearum [21]; [23]
  Relative Toxicity (Compared to Procymidone): 3.75
F. graminearum [21]; Fusarium graminearum, median inhibition concentration
  EC50: 227 µg/mL (≈ 853 µM)

## COc1ccc(C(=CC(=O)N2CCOCC2)c2ccc(Cl)cc2)cc1OC [Dimethomorph, (E,Z)-4-[3-(4-chlorphenyl)3-(3,4-dimethoxyphenyl)acryloyl]morpholine]
Phytophthora infestans [3]
  Average Diameter of the Colony: 0.00 cm
Phytophthora infestans [3]; read-out: Inhibition Rate
  inhibition at 1000 µg/mL: 100%
Pyricularia grisea
  Average Diameter of the Colony: 6.67 cm
  inhibition at 1000 µg/mL: 25.9%
F. graminearum [10]
  Average Diameter of the Colony: 6.23 cm
  inhibition at 1000 µg/mL: 30.8%
Exserohilum turcicum [12]
  Average Diameter of the Colony: 6.50 cm
  inhibition at 1000 µg/mL: 27.8%
Mycosphaerlla melonis
  Average Diameter of the Colony: 2.13 cm
  inhibition at 1000 µg/mL: 76.3%
F. oxysporum f. sp. lini
  Average Diameter of the Colony: 6.27 cm
  inhibition at 1000 µg/mL: 30.3%
[15]
  Average Diameter of the Colony: 6.03 cm
  inhibition at 1000 µg/mL: 33%
Botrytis cinerea [16]
  Average Diameter of the Colony: 2.33 cm
  inhibition at 1000 µg/mL: 74.1%
Sclerotinia sclerotiorum [17]
  Average Diameter of the Colony: 4.77 cm
  inhibition at 1000 µg/mL: 47%
C. gossypii
  Average Diameter of the Colony: 3.93 cm
  inhibition at 1000 µg/mL: 56.3%
Phytophthora capsici
  Average Diameter of the Colony: 0.00 cm
  inhibition at 1000 µg/mL: 100%
